Here are results for one compound from patent US12139458B2, “(2,5-dioxopyrrolidin-1-yl)(phenyl)-acetamide derivatives and their use in the treatment of neurological diseases” (UNIWERSYTET JAGIELLONSKI, priority 2019, dated 2024).

Data set [1] can be described thus: Rotarod test (motor coordination). The format is in vivo. The settings on record: male, Swiss albino (CD-1), mouse, in vivo, ip, mice. In a few lines: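 Compounds were given i.p. in 1% aqueous Tween as single doses 30 min before testing, 4 mice per group, after training the day before. Mice were tested on a 2 cm rod at 10 rpm for 60 s, and failure to stay on for 1 min counted as impairment. Statistics: one-way ANOVA with Dunnett's test, p<0.05.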
In general terms: In the rotarod test animals must keep their balance on a rotating rod.

Data set [2] deals with Ca2+ channel type L (diltiazem binding site). Nature of the data set: Ca2+ channel type L (diltiazem binding site) affinity study. The settings on record: 100 μM, rat cerebral cortex. The source says:
A unique feature of the compound 6 representing compounds of formula (II) according to the invention is the inhibition of calcium currents by blocking the transient receptor potential vanilloid type 1 (TRPV1). This effect has not been disclosed for known AEDs. TRPV1 receptor antagonism may determine the antinociceptive effect of the compounds disclosed herein. The role of the TRPV1 receptor in conduction of pain stimuli has been well documented in specialist literature (Szallasi, A.; Cortright, D. N.; Blum, C. A.; Eid, S. R. Nat. Rev. Drug. Discov. 2007, 6, 357-372). The compounds according to the invention are characterized by a complex mechanism of action, which is not described for known anticonvulsants. It should be emphasized, however, that further in vitro studies may reveal further molecular targets responsible for the pharmacological action of substances being the subject of current patent claim. The results of binding studies (sodium channel, calcium channel) and functional tests (TRPV1 receptor) for compound 6 are shown in Table 3.

The test system of data set [3] is voltage-dependent sodium channels in the prefrontal cortex pyramidal neurons. The experiment in a line: In vitro electrophysiological study of sodium currents. The data set is classed as cell-based, Rats. How it is done: The experiments were carried out in accordance with institutional and international guidelines regarding the ethics of animal research. Rats (3 weeks old) were anesthetized with ethyl chloride and decapitated. The brains were then removed and placed in ice-cold extracellular fluid. The methodology of slice preparation and pre-incubation has been described earlier (Szulczyk, B.; Nurowska, E. Biochem. Biophys. Res. Commun. 2017, 491, 291-295). The sections containing the prefrontal cortex were enzymatically and mechanically dispersed. Single prefrontal cortex pyramidal neurons were visualized using an inverted microscope (Nikon). Sodium currents were induced by rectangular depolarizing stimuli. The potential between depolarizing stimuli was maintained at −65 mV. […]
The extracellular fluid washing the neurons contained (in mM): NaCl (30), choline chloride (90), TEA-Cl (30), CaCl2 (2), MgCl2 (2), glucose (15), HEPES (10), LaCl3 (0.001) and CdCl2 (0.4) (pH 7.4). Currents were recorded using an Axopatch 1D amplifier and analyzed using pClamp software (Axon Instruments and Molecular Devices, USA). […]
The patch membrane was ruptured by suction or by an electrical stimulus, and then membrane capacitance was compensated. […] The leakage current was subtracted from the recorded currents. […]

The target of a further data set is T1, CYP3A4 (Homo sapiens, UniProt P08684).
T1 construct: purchased Promega (Madison, WI, USA)
T1 sequence (P08684 whole entry): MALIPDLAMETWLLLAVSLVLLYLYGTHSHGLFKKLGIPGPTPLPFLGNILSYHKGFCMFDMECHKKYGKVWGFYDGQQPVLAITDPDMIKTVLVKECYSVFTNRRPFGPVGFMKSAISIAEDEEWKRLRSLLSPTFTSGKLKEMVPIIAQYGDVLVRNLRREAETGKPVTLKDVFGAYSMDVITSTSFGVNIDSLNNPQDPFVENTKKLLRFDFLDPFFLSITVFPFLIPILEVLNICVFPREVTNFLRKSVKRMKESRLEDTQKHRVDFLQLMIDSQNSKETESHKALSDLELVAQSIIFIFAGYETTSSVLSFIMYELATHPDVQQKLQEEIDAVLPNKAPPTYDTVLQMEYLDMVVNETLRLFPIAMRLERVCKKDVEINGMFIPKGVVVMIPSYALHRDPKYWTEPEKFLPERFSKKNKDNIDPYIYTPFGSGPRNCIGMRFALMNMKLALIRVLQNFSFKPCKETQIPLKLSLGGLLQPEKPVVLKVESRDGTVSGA
The experiment in a line: CYP3A4 P450-Glo luminescence test. The format is in vitro ADME. As to the method:
Effect of compound 6 on cytochrome P-450 3A4 and 2D6 activity. The research was conducted using commercial luminescence tests CYP3A4 P450-Glo™ and CYP2D6 P450-Glo™ from Promega (Madison, WI, USA) based on the methodology described in the literature (Socała, K.; Mogilski, S.; Pieróg, M.; Nieoczym, D.; Abram, M.; Szulczyk, B.; Lubelska, A.; Latacz, G.; Doboszewska, U.; Wlaź, P.; Kamiński, K. ACS Chem. Neurosci. 2018, doi: 10.1021/acschemneuro.8b00476; Latacz, G.; Lubelska, A.; Jastrzȩbska-Wiȩek, M.; Partyka, A.; Sobato, A.; Olejarz, A.; Kucwaj-Brysz, K.; Satata, G.; Bojarski, A. J.; Wesołowska, A.; Kieć-Kononowicz, K.; Handzlik, J. Chem. Biol. Drug. Des. 2017, 90, 1295-1306). The CYP isoforms selected for study are responsible for the metabolism of approximately 40-50% of the drugs available on the market, and their stimulation or inhibition determines the majority of metabolic drug interactions. […] In summary, the results obtained indicate a low probability of potential metabolic interactions caused by 6.

As a reminder, the TD50 is the dose at which the toxic effect under study appears in half of the subjects. A high value points to lower toxicity. Compound `O=C(C(c1ccccc1)N1C(=O)CCC1=O)N1CCN(c2cccc(C(F)(F)F)c2)CC1` (racemic) [Compound 6, 1-(2-Oxo-1-phenyl-2-(4-(3-(trifluoromethyl)phenyl)piperazin-1-yl)ethyl)pyrrolidine-2,5-dione] yielded a TD50 at 0.5 h in data set [1] of 196 mg/kg. In addition, the “Inhibition of specific control binding, Ca2+ channel type L (diltiazem binding site)” value in data set [2] is recorded as 69.6 (100) %. Moreover, the “maximum amplitude of sodium currents normalized to control (1.0)” value in data set [3] (100 μM, in the presence of the compound, holding -65 mV) stood at 0.59±0.08. Besides, in data set [3] (after wash-out of 100 μM, n=5), the “sodium current amplitude normalized to control after washing out” value worked out at 0.79±0.07. Further, the “effect on CYP3A4 activity” value on CYP3A4 is “no effect”.
